In one test the target is T1, JAK2 (Homo sapiens, UniProt O60674).
T1 construct: host or cells: baculovirus expression system
Description: Recombinant Human JAK2 Kinase Assay (TRF). It counts as biochemical. Particulars: JAK2 kinase inhibition, 0.2 μM ATP; read-out: JAK2 Potency. In a few lines:
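TRF read-out: Eu-N1 PY100 anti-phosphotyrosine antibody detects product. Enzyme is baculovirus-expressed JAK2 at 15 ng/ml; substrate is a biotinyl 15-mer peptide bound to Neutravidin-coated wells. Buffer 20 mM HEPES pH 7.2, 0.2 μM ATP, 1 mM MnCl2, 0.1% BSA, 2.5% DMSO final; 20 min, RT.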

The target in another test is T2, ALK (Homo sapiens, UniProt Q9UM73).
T2 construct: host or cells: baculovirus expression system
T2 sequence (Q9UM73 19-1620): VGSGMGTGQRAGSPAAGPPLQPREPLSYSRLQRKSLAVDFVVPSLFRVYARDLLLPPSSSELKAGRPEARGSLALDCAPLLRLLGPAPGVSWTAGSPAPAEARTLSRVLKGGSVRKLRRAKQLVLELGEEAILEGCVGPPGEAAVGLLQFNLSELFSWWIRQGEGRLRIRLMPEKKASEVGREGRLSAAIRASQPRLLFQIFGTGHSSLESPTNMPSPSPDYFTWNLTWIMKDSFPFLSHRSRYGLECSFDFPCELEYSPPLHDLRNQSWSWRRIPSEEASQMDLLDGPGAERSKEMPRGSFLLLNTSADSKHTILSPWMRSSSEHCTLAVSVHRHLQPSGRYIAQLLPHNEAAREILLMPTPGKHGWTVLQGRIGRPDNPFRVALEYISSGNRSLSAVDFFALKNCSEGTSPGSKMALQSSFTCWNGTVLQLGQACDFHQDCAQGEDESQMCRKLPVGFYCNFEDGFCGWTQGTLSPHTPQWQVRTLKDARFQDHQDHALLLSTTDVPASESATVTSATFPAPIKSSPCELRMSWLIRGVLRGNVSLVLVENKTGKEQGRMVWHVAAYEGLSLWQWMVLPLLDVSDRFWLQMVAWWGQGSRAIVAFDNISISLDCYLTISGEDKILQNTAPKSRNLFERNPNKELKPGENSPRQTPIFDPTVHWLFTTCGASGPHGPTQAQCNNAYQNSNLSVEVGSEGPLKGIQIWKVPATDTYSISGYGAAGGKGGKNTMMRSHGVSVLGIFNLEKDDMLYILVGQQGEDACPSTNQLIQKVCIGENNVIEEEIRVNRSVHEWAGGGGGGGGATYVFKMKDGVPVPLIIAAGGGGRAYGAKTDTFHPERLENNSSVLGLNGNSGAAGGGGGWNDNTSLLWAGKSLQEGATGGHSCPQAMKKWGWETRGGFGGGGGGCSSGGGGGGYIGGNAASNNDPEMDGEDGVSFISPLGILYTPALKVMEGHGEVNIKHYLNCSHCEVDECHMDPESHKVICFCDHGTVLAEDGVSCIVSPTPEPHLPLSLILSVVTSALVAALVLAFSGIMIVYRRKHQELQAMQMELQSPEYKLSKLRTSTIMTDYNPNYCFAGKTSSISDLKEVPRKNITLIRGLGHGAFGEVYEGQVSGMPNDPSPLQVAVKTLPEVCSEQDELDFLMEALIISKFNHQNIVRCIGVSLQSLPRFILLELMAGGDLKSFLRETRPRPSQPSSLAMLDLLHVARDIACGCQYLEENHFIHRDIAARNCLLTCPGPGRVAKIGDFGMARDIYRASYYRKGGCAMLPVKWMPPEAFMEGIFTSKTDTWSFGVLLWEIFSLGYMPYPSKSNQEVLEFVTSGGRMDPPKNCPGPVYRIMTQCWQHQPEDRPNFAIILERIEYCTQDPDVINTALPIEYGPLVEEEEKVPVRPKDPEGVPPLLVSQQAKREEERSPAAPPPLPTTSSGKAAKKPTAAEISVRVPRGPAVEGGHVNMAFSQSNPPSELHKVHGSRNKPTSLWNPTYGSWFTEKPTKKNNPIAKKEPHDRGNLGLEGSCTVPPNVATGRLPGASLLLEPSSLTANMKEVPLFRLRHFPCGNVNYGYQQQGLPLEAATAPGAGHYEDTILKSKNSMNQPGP
Description: ALK Kinase Assay (ELISA/TRF, PLC-γ substrate). In kind it is biochemical. The following applies: ALK kinase inhibition, 1 μM ATP; read-out: ALK Potency. The method, boiled down:
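IC50 values derive from percent inhibition plotted against log10 compound concentration and fitted to a variable-slope sigmoidal equation. The underlying reaction used 30 ng/ml ALK acting on immobilized PLC-γ (10 μg/mL in TBS) at 37° C for 15 minutes, read with Eu-N1 PT66 antibody.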

The values below come from patent publication US8471005B2 (Cephalon, Inc., priority 2008, dated 2013).

pIC50: −log10 of the molar value.

T1 sequence (O60674 whole entry): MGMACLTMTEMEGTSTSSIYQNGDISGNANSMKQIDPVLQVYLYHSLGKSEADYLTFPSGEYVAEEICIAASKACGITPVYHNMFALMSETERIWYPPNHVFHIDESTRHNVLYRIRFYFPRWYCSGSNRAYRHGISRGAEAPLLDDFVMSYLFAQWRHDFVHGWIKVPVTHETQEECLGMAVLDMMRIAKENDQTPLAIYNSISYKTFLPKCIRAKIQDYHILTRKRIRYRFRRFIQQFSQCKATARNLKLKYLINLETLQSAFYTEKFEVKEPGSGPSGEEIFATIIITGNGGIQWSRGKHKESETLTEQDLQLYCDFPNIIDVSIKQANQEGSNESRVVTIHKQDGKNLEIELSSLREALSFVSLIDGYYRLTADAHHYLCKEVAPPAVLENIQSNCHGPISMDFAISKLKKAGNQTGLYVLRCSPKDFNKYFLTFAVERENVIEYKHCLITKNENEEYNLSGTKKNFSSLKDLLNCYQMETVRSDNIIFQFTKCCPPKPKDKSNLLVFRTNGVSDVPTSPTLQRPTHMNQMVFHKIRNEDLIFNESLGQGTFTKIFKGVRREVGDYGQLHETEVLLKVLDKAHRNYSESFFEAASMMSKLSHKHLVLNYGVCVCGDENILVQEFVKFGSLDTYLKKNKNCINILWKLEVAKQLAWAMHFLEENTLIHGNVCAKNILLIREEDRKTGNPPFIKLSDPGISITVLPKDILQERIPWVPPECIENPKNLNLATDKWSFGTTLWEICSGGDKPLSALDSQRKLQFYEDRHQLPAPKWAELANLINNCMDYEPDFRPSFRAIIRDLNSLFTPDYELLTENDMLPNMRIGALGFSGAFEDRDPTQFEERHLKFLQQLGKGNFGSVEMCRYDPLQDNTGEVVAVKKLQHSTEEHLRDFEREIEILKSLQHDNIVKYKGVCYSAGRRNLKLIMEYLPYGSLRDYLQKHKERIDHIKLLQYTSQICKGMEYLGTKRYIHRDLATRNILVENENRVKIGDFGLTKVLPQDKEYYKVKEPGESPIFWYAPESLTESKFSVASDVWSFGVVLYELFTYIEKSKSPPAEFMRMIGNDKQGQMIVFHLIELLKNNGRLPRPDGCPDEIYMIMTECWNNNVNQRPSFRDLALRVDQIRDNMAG

For the compound `COc1ccccc1-c1ccc2cnc(Nc3cn(CC(=O)N4CCOCC4)cn3)nn12` [Example 1113, 2-{4-[7-(2-Methoxy-phenyl)-pyrrolo[2,1-f][1,2,4]triazin-2-ylamino]-imidazol-1-yl}-1-morpholin-4-yl-ethanone], the values for the pIC50 at JAK2 and at ALK were over 7.00 and 5.00 to 6.00, respectively.
The like results for `COc1ccccc1-c1ccc2cnc(Nc3ccn(CC(=O)N4CCN(C)CC4)n3)nn12` [Example 1114, 2-{3-[7-(2-Methoxy-phenyl)-pyrrolo[2,1-f][1,2,4]triazin-2-ylamino]-pyrazol-1-yl}-1-(4-methyl-piperazin-1-yl)-ethanone] were, in that order, over 7.00 and 6.00 to 7.00.
`COc1ccc(-c2ccc3cnc(Nc4ccn(CC(=O)N5CCN(C)CC5)n4)nn23)cn1` [Example 1115, 2-{3-[7-(6-Methoxy-pyridin-3-yl)-pyrrolo[2,1-f][1,2,4]triazin-2-ylamino]-pyrazol-1-yl}-1-(4-methyl-piperazin-1-yl)-ethanone]: the pIC50 is over 7.00 on JAK2 and 5.00 to 6.00 at ALK.
The like results for `c1cc(Sc2ccc3cnc(Nc4ccc(N5CCOCC5)cc4)nn23)ccn1` [Example 1116, (4-Morpholin-4-yl-phenyl)-[7-(pyridin-4-ylsulfanyl)-pyrrolo[2,1-f][1,2,4]triazin-2-yl]-amine] were, in that order, over 7.00 and 5.00 to 6.00.
The like results for `CN1CCN(c2ccc(Nc3ncc4ccc(Sc5ccncc5)n4n3)cc2)CC1` [Example 1117, [4-(4-Methyl-piperazin-1-yl)-phenyl]-[7-(pyridin-4-ylsulfanyl)-pyrrolo[2,1-f][1,2,4]triazin-2-yl]-amine] were, in that order, over 7.00 and 5.00 to 6.00.
The like results for `CN1CCN(c2ccc(Nc3ncc4ccc(-c5ccc(N)nc5)n4n3)cc2)CC1` [Example 1118, [7-(6-Amino-pyridin-3-yl)-pyrrolo[2,1-f][1,2,4]triazin-2-yl]-[4-(4-methyl-piperazin-1-yl)-phenyl]-amine] were, in that order, over 7.00 and 6.00 to 7.00.
On to `CN1CCC(c2ccc(Nc3ncc4ccc(-c5ccc(S(C)(=O)=O)cc5)n4n3)cc2)CC1` [Example 1119, [7-(4-Methanesulfonyl-phenyl)-pyrrolo[2,1-f][1,2,4]triazin-2-yl]-[4-(1-methyl-piperidin-4-yl)-phenyl]-amine], for which the pIC50 on JAK2 and at ALK was over 7.00 in each case.
As to `CN1CCC(c2ccc(Nc3ncc4ccc(-c5cccc(S(C)(=O)=O)c5)n4n3)cc2)CC1` [Example 1120, [7-(3-Methanesulfonyl-phenyl)-pyrrolo[2,1-f][1,2,4]triazin-2-yl]-[4-(1-methyl-piperidin-4-yl)-phenyl]-amine], the figures for the pIC50 at JAK2 and on ALK were over 7.00 and 6.00 to 7.00, respectively.
The corresponding values for `COc1ccc(Cl)cc1-c1ccc2cnc(Nc3ccc(C4CCN(C)CC4)cc3)nn12` [Example 1121, [7-(5-Chloro-2-methoxy-phenyl)-pyrrolo[2,1-f][1,2,4]triazin-2-yl]-[4-(1-methyl-piperidin-4-yl)-phenyl]-amine] are over 7.00 and over 7.00.
The corresponding values for `CN1CCN(c2ccc(Nc3ncc4ccc(-c5cccc(NS(C)(=O)=O)c5)n4n3)cn2)CC1` [Example 1122, N-(3-{2-[6-(4-Methyl-piperazin-1-yl)-pyridin-3-ylamino]-pyrrolo[2,1-f][1,2,4]triazin-7-yl}-phenyl)-methanesulfonamide] are over 7.00 and 6.00 to 7.00.
The corresponding values for `CN1CCN(c2ccc(Nc3ncc4ccc(-c5cccc(S(C)(=O)=O)c5)n4n3)cn2)CC1` [Example 1123, [7-(3-Methanesulfonyl-phenyl)-pyrrolo[2,1-f][1,2,4]triazin-2-yl]-[6-(4-methyl-piperazin-1-yl)-pyridin-3-yl]-amine] are over 7.00 and 6.00 to 7.00.
Turning to `CN1CCN(Cc2cccc(Nc3ncc4ccc(-c5cccc(S(C)(=O)=O)c5)n4n3)n2)CC1` [Example 1124, [7-(3-Methanesulfonyl-phenyl)-pyrrolo[2,1-f][1,2,4]triazin-2-yl]-[6-(4-methyl-piperazin-1-ylmethyl)-pyridin-2-yl]-amine], the pIC50 on JAK2 and on ALK was under 5.00 throughout.
Turning to `COc1ccccc1-c1ccc2cnc(Nc3ccc(C4CCN(C[C@H](O)CO)CC4)cc3)nn12` [Example 1125, (S)-3-(4-{4-[7-(2-Methoxy-phenyl)-pyrrolo[2,1-f][1,2,4]triazin-2-ylamino]-phenyl}-piperidin-1-yl)-propane-1,2-diol], the pIC50 on JAK2 and at ALK was over 7.00 throughout.
As to `CN1CCN(c2ccc(Nc3ncc4ccc(-c5cccc(S(=O)(=O)NC(C)(C)C)c5)n4n3)cn2)CC1` [Example 1127, N-tert-Butyl-3-{2-[6-(4-methyl-piperazin-1-yl)-pyridin-3-ylamino]-pyrrolo[2,1-f][1,2,4]triazin-7-yl}-benzenesulfonamide], the pIC50 on JAK2 was over 7.00; on ALK, 6.00 to 7.00.
With `CS(=O)(=O)N1CC=C(c2ccc3cnc(Nc4ccc(N5CCOCC5)cc4)nn23)CC1` [Example 1129, [7-(1-Methanesulfonyl-1,2,3,6-tetrahydro-pyridin-4-yl)-pyrrolo[2,1-f][1,2,4]triazin-2-yl]-(4-morpholin-4-yl-phenyl)-amine], the pIC50 at JAK2 is over 7.00; on ALK, 5.00 to 6.00.
The like results for `OC[C@@H](O)CN1CCC(c2ccc(Nc3ncc4ccc(-c5cccc(Cl)c5)n4n3)cc2)CC1` [Example 1130, (S)-3-(4-{4-[7-(3-Chloro-phenyl)-pyrrolo[2,1-f][1,2,4]triazin-2-ylamino]-phenyl}-piperidin-1-yl)-propane-1,2-diol] were, in that order, over 7.00 and over 7.00.
The like results for `CN1CCC(c2ccc(Nc3ncc4ccc(-c5cccc(Cl)c5)n4n3)cc2)CC1` [Example 1131, [7-(3-Chloro-phenyl)-pyrrolo[2,1-f][1,2,4]triazin-2-yl]-[4-(1-methyl-piperidin-4-yl)-phenyl]-amine] were, in that order, over 7.00 and over 7.00.
With `COc1ccccc1-c1ccc2cnc(Nc3ccc(C4CCN(C)CC4)cc3)nn12` [Example 1132, [7-(2-Methoxy-phenyl)-pyrrolo[2,1-f][1,2,4]triazin-2-yl]-[4-(1-methyl-piperidin-4-yl)-phenyl]-amine], the pIC50 on JAK2 and on ALK was over 7.00 in each case.
Take `OCC1CCN(c2ccc(Nc3ncc4ccc(-c5cccc(Cl)c5)n4n3)cc2)CC1` [Example 1133, (1-{4-[7-(3-Chloro-phenyl)-pyrrolo[2,1-f][1,2,4]triazin-2-ylamino]-phenyl}-piperidin-4-yl)-methanol]: the values for the pIC50 on JAK2 and at ALK were over 7.00 and 6.00 to 7.00, respectively.
The like results for `OCCN1CCN(c2ccc(Nc3ncc4ccc(-c5cccc(Cl)c5)n4n3)cc2)CC1` [Example 1134, 2-(4-{4-[7-(3-Chloro-phenyl)-pyrrolo[2,1-f][1,2,4]triazin-2-ylamino]-phenyl}-piperazin-1-yl)-ethanol] were, in that order, over 7.00 and over 7.00.
The corresponding values for `CN1CCN(c2ccc(Nc3ncc4ccc(C5=CCN(C(=O)OC(C)(C)C)CC5)n4n3)cc2)CC1` [Example 1135, 4-{2-[4-(4-Methyl-piperazin-1-yl)-phenylamino]-pyrrolo[2,1-f][1,2,4]triazin-7-yl}-3,6-dihydro-2H-pyridine-1-carboxylic acid tert-butyl ester] are over 7.00 and 6.00 to 7.00.
The corresponding values for `CCN(CC)C1CCN(c2ccc(Nc3ncc4ccc(-c5cccc(S(C)(=O)=O)c5)n4n3)cc2)CC1` [Example 1137, [4-(4-Diethylamino-piperidin-1-yl)-phenyl]-[7-(3-methanesulfonyl-phenyl)-pyrrolo[2,1-f][1,2,4]triazin-2-yl]-amine] are over 7.00 and 6.00 to 7.00.
For `CCN(CC)C1CCN(c2ccc(Nc3ncc4ccc(-c5ccccc5OC)n4n3)cc2)CC1` [Example 1138, [4-(4-Diethylamino-piperidin-1-yl)-phenyl]-[7-(2-methoxy-phenyl)-pyrrolo[2,1-f][1,2,4]triazin-2-yl]-amine], the pIC50 at JAK2 and at ALK was over 7.00 in each case.
As to `CN1CCN(c2ccc(Nc3ncc4ccc(C5=CCN(S(C)(=O)=O)CC5)n4n3)cc2)CC1` [Example 1139, [7-(1-Methane sulfonyl-1,2,3,6-tetrahydro-pyridin-4-yl)-pyrrolo[2,1-f][1,2,4]triazin-2-yl]-[4-(4-methyl-piperazin-1-yl)-phenyl]-amine], the pIC50 at JAK2 is over 7.00; on ALK, 6.00 to 7.00.
The like results for `CN1CCN(c2ccc(Nc3ncc4ccc(Cc5ccccc5)n4n3)cc2)CC1` [Example 1140, (7-Benzyl-pyrrolo[2,1-f][1,2,4]triazin-2-yl)-[4-(4-methyl-piperazin-1-yl)-phenyl]-amine] were, in that order, over 7.00 and over 7.00.
The like results for `CN1CCN(c2ccc(Nc3ncc4ccc(-c5ccccc5OCC#N)n4n3)cc2)CC1` [Example 1141, (2-{2-[4-(4-Methyl-piperazin-1-yl)-phenylamino]-pyrrolo[2,1-f][1,2,4]triazin-7-yl}-phenoxy)-acetonitrile] were, in that order, over 7.00 and over 7.00.
The corresponding values for `CN1CCN(c2ccc(Nc3ncc4ccc(-c5cccc(CCC#N)c5)n4n3)cc2)CC1` [Example 1142, 3-(3-{2-[4-(4-Methyl-piperazin-1-yl)-phenylamino]-pyrrolo[2,1-f][1,2,4]triazin-7-yl}-phenyl)-propionitrile] are over 7.00 and over 7.00.
